Measured values from patent US20190284148A1, “MICROBIOCIDAL OXADIAZOLE DERIVATIVES” (SYNGENTA PARTICIPATIONS AG, priority 2016, published 2019).

Tests used:
[1] = tested on: Puccinia Recondita f. sp. Tritici; experiment: Puccinia recondita f. sp. tritici / wheat / leaf disc preventative (brown rust); type: in vivo; conditions: foliar, 200 ppm in the applied formulation, wheat leaf segments cv. Kanzler, preventative (inoculated 1 day after application), assessed 7 to 9 days after application, read-out: disease control compared to untreated control leaf disks
Description: Leaf disks or leaf segments of various plant species are cut from plants grown in a greenhouse. The cut leaf disks or segments are placed in multiwell plates (24-well format) onto water agar. The leaf disks are sprayed with a test solution before (preventative) or after (curative) inoculation. Compounds to be tested are prepared as DMSO solutions (max. 10 mg/ml) which are diluted to the appropriate concentration with 0.025% Tween20 just before spraying. The inoculated leaf disks or segments are incubated under defined conditions (temperature, relative humidity, light, etc.) according to the respective test system. A single evaluation of disease level is carried out 3 to 14 days after inoculation, depending on the pathosystem. Percent disease control relative to the untreated check leaf disks or segments is then calculated. Wheat leaf segments cv. Kanzler were placed on agar in multiwell plates (24-well format) and sprayed with the formulated test compound diluted in water. The leaf disks were inoculated with a spore suspension of the fungus 1 day after application. The inoculated leaf segments were incubated at 19° C. and 75% relative humidity (rh) under a light regime of 12 hours light/12 hours darkness in a climate cabinet and the activity of a compound was assessed as percent disease control compared to untreated when an appropriate level of disease damage appears in untreated check leaf segments (7 to 9 days after application). The following compounds at 200 ppm in the applied formulation give at least 80% disease control in this test when compared to untreated control leaf disks under the same conditions, which show extensive disease development.

[2] = tested on: Puccinia Recondita f. sp. Tritici; experiment: Puccinia recondita f. sp. tritici / wheat / leaf disc curative (brown rust); type: in vivo; conditions: foliar, 200 ppm in the applied formulation, wheat leaf segments cv. Kanzler, curative (applied 1 day after inoculation), assessed 6 to 8 days after application, read-out: disease control compared to untreated control leaf disks
Description: Leaf disks or leaf segments of various plant species are cut from plants grown in a greenhouse. The cut leaf disks or segments are placed in multiwell plates (24-well format) onto water agar. The leaf disks are sprayed with a test solution before (preventative) or after (curative) inoculation. Compounds to be tested are prepared as DMSO solutions (max. 10 mg/ml) which are diluted to the appropriate concentration with 0.025% Tween20 just before spraying. The inoculated leaf disks or segments are incubated under defined conditions (temperature, relative humidity, light, etc.) according to the respective test system. A single evaluation of disease level is carried out 3 to 14 days after inoculation, depending on the pathosystem. Percent disease control relative to the untreated check leaf disks or segments is then calculated.
Wheat leaf segments cv. Kanzler are placed on agar in multiwell plates (24-well format). The leaf segments are then inoculated with a spore suspension of the fungus. Plates were stored in darkness at 19° C. and 75% relative humidity. The formulated test compound diluted in water was applied 1 day after inoculation. The leaf segments were incubated at 19° C. and 75% relative humidity under a light regime of 12 hours light/12 hours darkness in a climate cabinet and the activity of a compound was assessed as percent disease control compared to untreated when an appropriate level of disease damage appears in untreated check leaf segments (6 to 8 days after application).
The following compounds at 200 ppm in the applied formulation give at least 80% disease control in this test when compared to untreated control leaf disks under the same conditions, which show extensive disease development.

[3] = tested on: Glomerella Lagenarium (Colletotrichum Lagenarium); experiment: Glomerella lagenarium (Colletotrichum lagenarium) liquid culture / cucumber / preventative (anthracnose); type: cell-based; conditions: Colletotrichum orbiculare; 20 ppm in the applied formulation; liquid culture in PDB, 24° C., 3 to 4 days after application; read-out: disease control compared to untreated control (inhibition of growth measured photometrically)
Description: Mycelia fragments or conidia suspensions of a fungus prepared either freshly from liquid cultures of the fungus or from cryogenic storage, are directly mixed into nutrient broth. DMSO solutions of the test compound (max. 10 mg/ml) are diluted with 0.025% Tween20 by a factor of 50 and 10 μl of this solution is pipetted into a microtiter plate (96-well format). The nutrient broth containing the fungal spores/mycelia fragments is then added to give an end concentration of the tested compound. The test plates are incubated in the dark at 24° C. and 96% relative humidity. The inhibition of fungal growth is determined photometrically after 2 to 7 days, depending on the pathosystem, and percent antifungal activity relative to the untreated check is calculated.
Conidia of the fungus from cryogenic storage are directly mixed into nutrient broth (PDB—potato dextrose broth). After placing a (DMSO) solution of test compound into a microtiter plate (96-well format), the nutrient broth containing the fungal spores is added. The test plates are incubated at 24° C. and the inhibition of growth is measured photometrically 3 to 4 days after application.
The following compounds at 20 ppm in the applied formulation give at least 80% disease control in this test when compared to untreated control under the same conditions, which show extensive disease development.

Row | Structure (SMILES) | pest or weed control at 200 ppm [1] [%] | pest or weed control at 200 ppm [2] [%] | inhibition at 20 ppm [3] [%] | melting point [°C]
1 | CCOC(=O)Nc1ccc(-c2noc(C(F)(F)F)n2)cc1F [Compound 1.9, ethyl N-[2-fluoro-4-[5-(trifluoromethyl)-1,2,4-oxadiazol-3-yl]phenyl]carbamate] | ≥ 80 | ≥ 80 | ≥ 80 | 86 to 91
2 | CON(C)C(=O)Nc1ccc(-c2noc(C(F)(F)F)n2)cc1C [Compound 1.10, 1-methoxy-1-methyl-3-[2-methyl-4-[5-(trifluoromethyl)-1,2,4-oxadiazol-3-yl]phenyl]urea] | ≥ 80 | ≥ 80 | ≥ 80 | 73 to 76
